# Experimental data published in patent US12168781B2, “Production method for T cells or NK cells, medium for culturing T cells or NK cells, method for culturing T cells or NK cells, method for maintaining undifferentiated state of undifferentiated T cells, and growth-accelerating agent for T cells or NK cells” (KIRIN HOLDINGS KABUSHIKI KAISHA, priority 2018, dated 2024).
# Assays:
# [1] = system: T-iPS-T cells; test: Number of viable T-iPS-T cells under feeder-free culture (CD3/CD28 Dynabeads, Cell Count Reagent SF, absorbance 450 nm/650 nm); type: cell-based, human; conditions: for number of viable cells (OD value): T-iPS-T cells after 1st expansion, DMSO control 0.225 ± 0.017
# Description: T-iPS-T cells (1,500 cells/well) after 1st expansion were seeded and cultured in RPMI-1640 medium (SIGMA, R8758) supplemented with 15% FBS (CORNING, 35-076-CV, 35076104R), 1% PSG (SIGMA, G1146), PAA (50 μg/mL, Nacalai Tesque, 03420-52), ITS-G, IL-7 (5 ng/mL), IL-12 (50 ng/mL), IL-15 (5 ng/mL), IL-18 (50 ng/mL), IL-21 (20 ng/mL), and z-VAD-fmk (10 μM). The cells were stimulated by adding CD3/CD28 Dynabeads (Gibco, 11131D, the “Dynabeads” is a registered trademark) (4,500 beads/well) thereto, and 1,080 compounds [MedChemExpress, Apoptosis Compound Library (HY-L003), Cell Cycle/DNA Damage Compound Library (HY-L004), JAK/STAT Compound Library (HY-L008), MAPK Compound Library (HY-L010), NF-kappaB Compound Library (HY-L014), PI3K/Akt/mTOR Compound Library (HY-L015), and Wnt/Hedgehog/Notch Compound Library (HY-L020)] were added thereto (one type per well) at a final concentration of 1 μM, and then, the cells were cultured at 37° C. under 5% CO2.
# DMSO (0.1%) that is a solvent for the compound was used as a control. After 6 days, the number of viable cells was measured using Cell Count Reagent SF (Nacalai Tesque, 07553) and a microplate reader (SoftMax Pro 5.X, Molecular Devices, 450 nm/650 nm).
# A calibration curve for cell number was set as follows. When measuring the number of viable cells, 12-point serial dilution was performed for the same cells as those used in the screening, and the cells were seeded (0 to 1,536,000 cells/well) in RPMI-1640 medium supplemented with 15% FBS, 1% PSG, PAA, ITS-G, IL-7 (5 ng/mL) and IL-15 (5 ng/mL). The number of viable cells was measured together with the screening samples, and a calibration curve for WST-8 assay was formed.
# In order to further evaluate the results obtained in Example 4, reproducibility was evaluated. As a method therefor, the same method as in Example 4 was used to carry out culturing and evaluation. As compounds, 20 compounds were selected and used among the compounds used in Example 4 including berbamine, and DMSO (0.1%) that is a solvent for the compound was used as a control. Note that in a statistical analysis, a Student's t-test was used (*: p<0.05).
# The effect of a berbamine derivative on the proliferation of T cells was verified. As a method therefor, T-iPS-T cells after 1st expansion were cultured in the same manner as in Example 4, and berbamine (BBM) or each of 13 types of derivatives [BBMD1 to 13, Hebei Sundia MediTech Company Ltd.] was added thereto (one type per well) at a final concentration of 0.1 nM, 1 nM, 10 nM, 100 nM, or 1 μM, and then, the cells were cultured at 37° C. under 5% CO2. DMSO (0.1%) that is a solvent for the compound was used as a control.
# After culturing for 6 days, the number of viable cells was measured using Cell Count Reagent SF (Nacalai Tesque, 07553) and a microplate reader (SoftMax Pro 5. X, Molecular Devices, 450 nm/650 nm), and the OD value was used as data. Note that in a statistical analysis, a Student's t-test was used (*: p<0.05). 1.
# [2] = system: primary T cells (CD4 T, CD8 T cells); test: Proliferation of primary T cells purified from PBMCs; type: cell-based, human; conditions: 1 μM, 6 days, restimulated, further 4 days, FIG. 16
# Description: The effect of berbamine on proliferation of primary T cells (CD4 T, CD8 T cells) was examined. As a method therefor, CD3 T cells were purified from PBMCs (CTL, Inc.) using Pan T Cell Isolation Kit, human (Miltenyi, 130-096-535). The purified CD3 T cells (20,000 cells/well) were seeded, and berbamine (BBM) at 1 μM or MilliQ water that is a solvent for the compound as a control was added thereto, and the cells were stimulated with CD3/CD28 Dynabeads (60,000 beads/well).
# The cells were cultured for 6 days in the same culture medium as in Example 6 and restimulated. After the cells were further cultured for 4 days, the number of viable cells was counted by a trypan blue method and the ratios of CD4-positive cells and CD8-positive cells were analyzed by FACS. […]
# After washing, the cells were resuspended in 200 μL/well of the staining solution containing PI. The suspension in an amount of 100 μL/well was analyzed using a BD LSR Fortessa cytometer (BD Bioscience) equipped with HTS, and all cells were recorded.
# The value obtained by multiplying the positive rate of CD8(+) or CD4(+) cells in the PI-negative cell population analyzed by FlowJo 9 by the number of viable cells was defined as the number of CD8-positive cells or the number of CD4-positive cells. […]
structure (smiles),measurement,setting,value
COc1cc2c3cc1Oc1c(OC)c(OC)cc4c1[C@@H](Cc1ccc(O)c(c1)Oc1ccc(cc1)C[C@@H]3N(C)CC2)N(C)CC4 [berbamine],number of viable cells (OD value),"[1]; 0.1 nM, 6 days",0.257 ± 0.018
same,number of viable cells (OD value),"[1]; 1 nM, 6 days",0.266 ± 0.024
same,number of viable cells (OD value),"[1]; 10 nM, 6 days",0.275 ± 0.019 *
same,number of viable cells (OD value),"[1]; 100 nM, 6 days",0.282 ± 0.031 *
same,number of cells compared with DMSO (reproducibility of the screening),"[1]; 1 μM, 20 compounds, Student's t-test, FIG. 11",significant increase in the number of cells
same,"number of viable cells, rank among the 1,080 compounds screened","[1]; 1 μM, 6 days, FIG. 6",highest number of viable cells
same,number of viable cells (OD value),"[1]; 1 μM, 6 days",0.505 ± 0.034 ***
same,number of CD4-positive cells compared with MilliQ water,[2],significant enhancement of cell proliferation
same,number of CD8-positive cells compared with MilliQ water,[2],significant enhancement of cell proliferation
